“Also recorded” adds a separate entry of the source.
Assays:
folate receptor = folate receptor (Homo sapiens, UniProt P15328); conditions: KB cells, 1 hour at 37° C., 100 nM 3H-folic acid, increasing competitor concentrations; folic acid = 1.0
KB cells = assay: Cell viability in KB cells; conditions: 2, 10, and 50 nM, at 24 hours

folate receptor, sequence (P15328 25-234): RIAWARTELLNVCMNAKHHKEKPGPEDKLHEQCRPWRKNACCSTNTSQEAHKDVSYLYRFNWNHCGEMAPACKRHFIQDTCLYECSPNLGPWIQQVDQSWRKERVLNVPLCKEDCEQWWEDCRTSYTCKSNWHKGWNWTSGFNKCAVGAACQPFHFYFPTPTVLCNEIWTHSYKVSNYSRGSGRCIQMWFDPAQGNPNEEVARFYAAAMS

CO[C@H]1C[C@@H]2CC[C@@H](C)[C@@](O)(O2)C(=O)C(=O)N2CCCC[C@H]2C(=O)O[C@H]([C@H](C)C[C@@H]2CC[C@@H](O)[C@H](OC)C2)CC(=O)[C@H](C)/C=C(\C)[C@@H](OC(=O)OCCSSC[C@H](NC(=O)[C@H](CC(=O)O)NC(=O)[C@H](CC(=O)O)NC(=O)[C@H](CCCNC(=N)N)NC(=O)[C@H](CC(=O)O)NC(=O)CC[C@H](NC(=O)c2ccc(NCc3cnc4nc(N)[nH]c(=O)c4n3)cc2)C(=O)O)C(=O)O)[C@@H](OC)C(=O)[C@H](C)C[C@H](C)/C=C/C=C/C=C/1C [EC0371]
relative affinity at the folate receptor (folate receptor): 0.5 | cytotoxicity (cell viability) (KB cells): Neither rapamycin nor EC0371 is cytotoxic; also recorded: neither rapamycin nor EC0371 was found to be cytotoxic

Source: US8765096B2, “Methods and compositions for treating and diagnosing kidney disease” (Endocyte, Inc, priority 2007, dated 2014)
